Assay results reported in patent US9944602B2, “Piperidinone herbicides” (E. I. DU PONT DE NEMOURS AND COMPANY, priority 2014, dated 2018).
One block for each compound: values may come before it.

Experiments:
[1] = test system: ragweed (common ragweed, Ambrosia elatior); experiment: Test A postemergence ragweed; type: in vivo; settings: Ambrosia artemisiifolia, post-emergence, 240 h, 0 to 100 scale, 0 is no effect, 100 is complete control, read-out: Plant response rating, Ragweed; for pest or weed control at 125 g/ha: 125 g ai/ha; for pest or weed control at 500 g/ha: 500 g ai/ha
Procedure, shortened: (§1)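 Greenhouse pot test: chemicals formulated with surfactant in non-phytotoxic solvent, sprayed on soil at seeding (pre) or on 1–2 leaf seedlings of 2–10 cm (post). Rating ~10 d later, visual, 0 = no effect to 100 = complete control, relative to untreated controls.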

[2] = test system: ryegrass, Italian (Italian ryegrass, Lolium multiflorum); experiment: Test A preemergence ryegrass, Italian; type: in vivo; settings: Lolium multiflorum, pre-emergence, 240 h, 0 to 100 scale, 0 no effect, 100 complete control, read-out: Ryegrass, Italian plant response rating; for pest or weed control at 125 g/ha: 125 g ai/ha; for pest or weed control at 500 g/ha: 500 g ai/ha
Procedure, shortened: as §1

[3] = test system: ragweed (common ragweed, Ambrosia elatior); experiment: Test A preemergence ragweed; type: in vivo; settings: Ambrosia artemisiifolia, pre-emergence, 240 h, 0 to 100 scale, 0 no effect, 100 complete control, read-out: Ragweed plant response rating; for pest or weed control at 125 g/ha: 125 g ai/ha; for pest or weed control at 500 g/ha: 500 g ai/ha
Procedure, shortened: as §1

[4] = test system: barnyardgrass (Echinochloa crus-galli); experiment: Test B flooded paddy test barnyardgrass; type: in vivo; settings: Echinochloa crus-galli, Table B, Flood, 250 g ai/ha, scale 0 to 100, read-out: Plant response rating
Procedure, shortened: (§2)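 Plants at 2-leaf stage in pots flooded 3 cm above soil; compounds applied directly into paddy water, depth kept throughout.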

[5] = test system: pigweed (Amaranthus retroflexus); experiment: Test A preemergence pigweed; type: in vivo; settings: Amaranthus retroflexus, pre-emergence, 240 h, 0 to 100 scale, 0 no effect, 100 complete control, read-out: Pigweed plant response rating; for pest or weed control at 125 g/ha: 125 g ai/ha; for pest or weed control at 500 g/ha: 500 g ai/ha
Procedure, shortened: as §1

rice (Oryza sativa) = experiment: Test B flooded paddy test rice; type: in vivo; settings: Oryza sativa, Table B, Flood, 250 g ai/ha, scale 0 to 100, read-out: Plant response rating
Procedure, shortened: as §2

kochia (Kochia scoparia) [6] = experiment: Test A preemergence kochia; type: in vivo; settings: Bassia scoparia, pre-emergence, 240 h, 0 to 100 scale, 0 no effect, 100 complete control, read-out: Kochia plant response rating; for pest or weed control at 125 g/ha: 125 g ai/ha; for pest or weed control at 500 g/ha: 500 g ai/ha
Procedure, shortened: as §1

[7] = test system: galium (catchweed bedstraw, Galium aparine); experiment: Test A postemergence galium; type: in vivo; settings: Galium, post-emergence, 240 h, 0 to 100 scale, 0 is no effect, 100 is complete control, read-out: Plant response rating, Galium; for pest or weed control at 125 g/ha: 125 g ai/ha; for pest or weed control at 500 g/ha: 500 g ai/ha
Procedure, shortened: as §1

corn (Zea mays) = experiment: Test A postemergence corn; type: in vivo; settings: Zea mays, post-emergence, 240 h, 0 to 100 scale, 0 is no effect, 100 is complete control; for Corn plant response rating (crop injury, 0 = no effect, 100 = complete kill) at 125 g/ha: 125 g ai/ha; for Corn plant response rating (crop injury, 0 = no effect, 100 = complete kill) at 500 g/ha: 500 g ai/ha
Procedure, shortened: as §1

[8] = test system: pigweed (Amaranthus retroflexus); experiment: Test A postemergence pigweed; type: in vivo; settings: Amaranthus retroflexus, post-emergence, 240 h, 0 to 100 scale, 0 is no effect, 100 is complete control, read-out: Plant response rating, Pigweed; for pest or weed control at 125 g/ha: 125 g ai/ha; for pest or weed control at 500 g/ha: 500 g ai/ha
Procedure, shortened: as §1

[9] = test system: wheat (Triticum aestivum); experiment: Test A postemergence wheat; type: in vivo; settings: Triticum aestivum, post-emergence, 240 h, 0 to 100 scale, 0 is no effect, 100 is complete control, read-out: Plant response rating, Wheat; for plant injury at 125 g/ha: 125 g ai/ha; for plant injury at 500 g/ha: 500 g ai/ha
Procedure, shortened: as §1

[10] = test system: barnyardgrass (Echinochloa crus-galli); experiment: Test A preemergence barnyardgrass; type: in vivo; settings: Echinochloa crus-galli, pre-emergence, 240 h, 0 to 100 scale, 0 no effect, 100 complete control, read-out: Barnyardgrass plant response rating; for pest or weed control at 125 g/ha: 125 g ai/ha; for pest or weed control at 500 g/ha: 500 g ai/ha
Procedure, shortened: as §1

[11] = test system: barnyardgrass (Echinochloa crus-galli); experiment: Test A postemergence barnyardgrass; type: in vivo; settings: Echinochloa crus-galli, post-emergence, 240 h, 0 to 100 scale, 0 is no effect, 100 is complete control, read-out: Plant response rating, Barnyardgrass; for pest or weed control at 125 g/ha: 125 g ai/ha; for pest or weed control at 500 g/ha: 500 g ai/ha
Procedure, shortened: as §1

[12] = test system: ryegrass, Italian (Italian ryegrass, Lolium multiflorum); experiment: Test A postemergence ryegrass, Italian; type: in vivo; settings: Lolium multiflorum, post-emergence, 240 h, 0 to 100 scale, 0 is no effect, 100 is complete control, read-out: Plant response rating, Ryegrass, Italian; for pest or weed control at 125 g/ha: 125 g ai/ha; for pest or weed control at 500 g/ha: 500 g ai/ha
Procedure, shortened: as §1

[13] = test system: sedge, umbrella (small-flower umbrella sedge, Cyperus difformis); experiment: Test B flooded paddy test sedge, umbrella; type: in vivo; settings: Cyperus difformis, Table B, Flood, 250 g ai/ha, scale 0 to 100, read-out: Plant response rating
Procedure, shortened: as §2

[14] = test system: blackgrass (Alopecurus myosuroides); experiment: Test A postemergence blackgrass; type: in vivo; settings: Alopecurus myosuroides, post-emergence, 240 h, 0 to 100 scale, 0 is no effect, 100 is complete control, read-out: Plant response rating, Blackgrass; for pest or weed control at 125 g/ha: 125 g ai/ha; for pest or weed control at 500 g/ha: 500 g ai/ha
Procedure, shortened: as §1

kochia (Kochia scoparia) [15] = experiment: Test A postemergence kochia; type: in vivo; settings: Bassia scoparia, post-emergence, 240 h, 0 to 100 scale, 0 is no effect, 100 is complete control, read-out: Plant response rating, Kochia; for pest or weed control at 125 g/ha: 125 g ai/ha; for pest or weed control at 500 g/ha: 500 g ai/ha
Procedure, shortened: as §1

[16] = test system: foxtail, giant (giant foxtail, Setaria faberii); experiment: Test A postemergence foxtail, giant; type: in vivo; settings: Setaria faberi, post-emergence, 240 h, 0 to 100 scale, 0 is no effect, 100 is complete control, read-out: Plant response rating, Foxtail, Giant; for pest or weed control at 125 g/ha: 125 g ai/ha; for pest or weed control at 500 g/ha: 500 g ai/ha
Procedure, shortened: as §1

[17] = test system: ducksalad (Heteranthera limosa); experiment: Test B flooded paddy test ducksalad; type: in vivo; settings: Heteranthera limosa, Table B, Flood, 250 g ai/ha, scale 0 to 100, read-out: Plant response rating
Procedure, shortened: as §2

[18] = test system: foxtail, giant (giant foxtail, Setaria faberii); experiment: Test A preemergence foxtail, giant; type: in vivo; settings: Setaria faberi, pre-emergence, 240 h, 0 to 100 scale, 0 no effect, 100 complete control, read-out: Foxtail, Giant plant response rating; for pest or weed control at 125 g/ha: 125 g ai/ha; for pest or weed control at 500 g/ha: 500 g ai/ha
Procedure, shortened: as §1

melting point: 100 to 102 °C
SMILES: O=C1NCCC(c2cccc(Cl)c2)C1C(=O)Nc1cccc(F)c1F (centres unmarked) [Compound 36, 4-(3-chlorophenyl)-N-(2,3-difluorophenyl)-2-oxo-3-piperidinecarboxamide]
pest or weed control at 125 g/ha [1]: 0%
pest or weed control at 500 g/ha [1]: 0%
pest or weed control at 125 g/ha [2]: 0%
pest or weed control at 500 g/ha [2]: 30%
pest or weed control at 125 g/ha [3]: 0%
pest or weed control at 500 g/ha [3]: 0%
pest or weed control at 250 g/ha [4]: 60%
pest or weed control at 125 g/ha [5]: 0%
pest or weed control at 500 g/ha [5]: 0%
plant injury at 250 g/ha (rice (Oryza sativa)): 0%
pest or weed control at 125 g/ha (kochia (Kochia scoparia) [6]): 0%
pest or weed control at 500 g/ha (kochia (Kochia scoparia) [6]): 0%
pest or weed control at 125 g/ha [7]: 0%
pest or weed control at 500 g/ha [7]: 30%
Corn plant response rating (crop injury, 0 = no effect, 100 = complete kill) at 125 g/ha (corn (Zea mays)): 0%
Corn plant response rating (crop injury, 0 = no effect, 100 = complete kill) at 500 g/ha (corn (Zea mays)): 0%
pest or weed control at 125 g/ha [8]: 0%
pest or weed control at 500 g/ha [8]: 0%
plant injury at 125 g/ha [9]: 0%
plant injury at 500 g/ha [9]: 0%
pest or weed control at 125 g/ha [10]: 90%
pest or weed control at 500 g/ha [10]: 90%
pest or weed control at 125 g/ha [11]: 80%
pest or weed control at 500 g/ha [11]: 90%
pest or weed control at 125 g/ha [12]: 0%
pest or weed control at 500 g/ha [12]: 20%
pest or weed control at 250 g/ha [13]: 0%
pest or weed control at 125 g/ha [14]: 0%
pest or weed control at 500 g/ha [14]: 60%
pest or weed control at 125 g/ha (kochia (Kochia scoparia) [15]): 0%
pest or weed control at 500 g/ha (kochia (Kochia scoparia) [15]): 0%
pest or weed control at 125 g/ha [16]: 90%
pest or weed control at 500 g/ha [16]: 90%
pest or weed control at 250 g/ha [17]: 90%
pest or weed control at 125 g/ha [18]: 90%
pest or weed control at 500 g/ha [18]: 90%

melting point: 134 to 137 °C
SMILES: O=C1NCCC(c2cccc(C(F)F)c2)C1C(=O)Nc1cccc(F)c1F (centres unmarked) [Compound 49, 4-[3-(difluoromethyl)phenyl]-N-(2,3-difluorophenyl)-2-oxo-3-piperidinecarboxamide]
pest or weed control at 125 g/ha [1]: 0%
pest or weed control at 500 g/ha [1]: 0%
pest or weed control at 125 g/ha [2]: 0%
pest or weed control at 500 g/ha [2]: 60%
pest or weed control at 125 g/ha [3]: 0%
pest or weed control at 500 g/ha [3]: 0%
pest or weed control at 250 g/ha [4]: 70%
pest or weed control at 125 g/ha [5]: 0%
pest or weed control at 500 g/ha [5]: 0%
plant injury at 250 g/ha (rice (Oryza sativa)): 0%
pest or weed control at 125 g/ha (kochia (Kochia scoparia) [6]): 0%
pest or weed control at 500 g/ha (kochia (Kochia scoparia) [6]): 0%
pest or weed control at 125 g/ha [7]: 0%
pest or weed control at 500 g/ha [7]: 0%
Corn plant response rating (crop injury, 0 = no effect, 100 = complete kill) at 125 g/ha (corn (Zea mays)): 0%
Corn plant response rating (crop injury, 0 = no effect, 100 = complete kill) at 500 g/ha (corn (Zea mays)): 50%
pest or weed control at 125 g/ha [8]: 0%
pest or weed control at 500 g/ha [8]: 0%
plant injury at 125 g/ha [9]: 0%
plant injury at 500 g/ha [9]: 30%
pest or weed control at 125 g/ha [10]: 80%
pest or weed control at 500 g/ha [10]: 90%
pest or weed control at 125 g/ha [11]: 80%
pest or weed control at 500 g/ha [11]: 90%
pest or weed control at 125 g/ha [12]: 0%
pest or weed control at 500 g/ha [12]: 0%
pest or weed control at 250 g/ha [13]: 0%
pest or weed control at 125 g/ha [14]: 0%
pest or weed control at 500 g/ha [14]: 50%
pest or weed control at 125 g/ha (kochia (Kochia scoparia) [15]): 0%
pest or weed control at 500 g/ha (kochia (Kochia scoparia) [15]): 0%
pest or weed control at 125 g/ha [16]: 80%
pest or weed control at 500 g/ha [16]: 80%
pest or weed control at 250 g/ha [17]: 100%
pest or weed control at 125 g/ha [18]: 90%
pest or weed control at 500 g/ha [18]: 90%
